Experimental data published in patent US20190209572A1, “BIFUNCTIONAL ANTIFUNGAL AGENTS AND METHODS OF TREATING FUNGAL INFECTION” (YALE UNIVERSITY, priority 2016, published 2019).

Legend:
[1] = test system: caspofungin-treated C. albicans cells; experiment: Flow cytometry antibody-recruiting assay on C. albicans grown with caspofungin; format: cell-based, Candida albicans
Method: The synergistic experiments with Caspofungin were performed as described above, Save that yeast cell cultures were grown in Sabouraud dextrose broth supplemented with a fixed concentration of Caspofungin acetate from DMSO stock solutions.
Cultures of C. albicans Ca2323 were grown in Sabourad dextrose broth (Hardy Diagnostics, CA) to maintain them in a non-sporulating yeast form (blastopore form). S. cerevisiae YPH499 (Mat type a) were grown in YPD brath (Teknova, CA). Chitin-deficient strain S. cerevisiae YMS348s Δchs 1,2,3 was grown in YPD broth supplemented with 1M sorbitol. The fungal cultures were generally grown overnight at 30° C. for the antibody recruitment and phagocytosis assays. For consistency, O.D. measurements were taken using a single cuvette UltraSpec 10 cell density meter and experiments were performed on cultures with similar density. For experiments involving caspofungin treated C. albicans, the cells were grown overnight in media containing 1.25 ng/ml caspofungin acetate (Merck, PA). For experiments involving α factor induced arrest, α factor pheromone trifluoroacetate salt (Bachem, Switzerland) was added to a fresh S. cerevisiae YPH499 culture to a final concentration of 5 μg/mL followed by incubation for 1 h. Then, the cells were treated repeatedly with α factor pheromone trifluoroacetate salt (5 μg/mL) and incubated for an additional 2 h.
Fungal cells for the antibody recruitment experiments were always grown to 1.0 O.D. for consistency across experiments. The fungal cells were pelleted, washed, counted on the flow cytometer and re-constituted in FACS buffer of PBS containing 5% BSA at a density of 1×10^5 cells/mL. One microliter of suitably diluted ARM compound followed by 1 μL of 1:100 diluted anti-DNP biotinylated mouse monoclonal antibody (2 mg/mL, Invitrogen, CA) was added to 100 μL of fungal cells in FACS buffer. The reaction was mixed well and incubated in a 37° C. incubator for 30 minutes. Post incubation, washing was performed by adding 1 mL of FACS buffer to the reaction and the cells pelleted by centrifugation at 10000x g for 5 minutes. The pelleted cells were then reconstituted in 100 μl of FACS buffer followed by addition of 1 μL of 1:1000 diluted AF647 labeled streptavidin (0.5 mg/mL, BioLegend, CA) and 1 μL of 100 μg/ml propidium iodide (PromoKine, Germany). […] All experiments consisted of two sets of controls: (i) flow controls: unstained cells, propidium iodide stained cells, secondary reagent stained cells; (ii) background controls: compound 9 lacking DNP motifs, and no ARM-F. The cells were analyzed by flow cytometry on an Attune Nxt flow cytometer (Thermo Fischer Scientific) and the raw data further analyzed using FlowJo software (FlowJo LLC, OR).

Candida albicans = experiment: Flow cytometry antibody-recruiting assay (anti-DNP antibodies) on C. albicans; format: cell-based
Method: Candida albicans cultures were maintained on Sabouraud dextrose agar (SDA) and yeast cell cultures were grown at 30° C. in Sabouraud dextrose broth with shaking at 225 rpm overnight (OD 1.1-1.3). For the assays, 10^5 cells were taken into 50 μL assay medium (5% BSA in PBS 1x) and treated with a fixed concentration of the indicated ARM-F compound from 100x DMSO stocks followed by imminent addition of 50 μL 500x stock solution of anti-DNP-biotine-xx conjugate antibodies in assay medium. Cells were allowed to incubate for 30 min at r.t., then washed twice with 500 μL assay medium followed by addition of 50 μL 500x stock solution of streptavidin-AlexaFluor 647 conjugate and propidium iodide. […] The cells were allowed to incubate for another 30 min, washed with 500 μL assay medium and antibody recruiting to the cell surface was evaluated via flow cytometry by measuring increasing cell counts in the FL-4 channel negative for FL-3.
A flow-cytometry based assay was developed to assess the antibody recruitment ability of candidate ARM-Fs to isolates of C. albicans. We chose this organism for our studies because it is both a known human pathogen, and readily tractable for experimental manipulations.^[13] Ternary complexes formed from ARM-F, fungal cells and anti-DNP antibodies were detected using an anti-DNP secondary antibody conjugated to Alexa Fluor 647 fluorophore. […]

C. albicans = experiment: Dual color flow cytometry-based fungal opsono-phagocytosis assay; format: cell-based, Candida albicans
Source text: In the physiological state, neutrophils mediate immune clearance of antibody-opsonized fungal cells.^[18], [19] To mimic this mechanism, we developed a functional assay to analyse ARM-F mediated opsonophagocytosis of fungal cells. The assay is based on two color flow cytometry and operates on the principle of differentiating phagocytosed fungal cells (intracellular) from non-phagocytosed cells (extracellular).^[20] […]
The pro-myeloblast cell line HL-60 was obtained from AtCC and cultured in high serum DMEM-F12 growth medium containing 15% FBS, 1 mM sodium pyruvate, 2 mM L-glutamine, 1X non-essential amino acids with antibiotics penicillin (10 U/mL) and streptomycin (10 μg/mL). […] The cells were counted every 24-48 hours on a Roche Innovatis Cedex XS automated cell counter and generally maintained at a density of 1×10^5 cells/mL. […]
Fungal cells for these experiments were always grown to 1.0 OD and the HL-60 cells to approximately 1×10^5 cells/mL for consistency between experiments. The fungal cells were counted by flow cytometry, pelleted and reconstituted in a fixing solution of ice-cold 70% ethanol and incubated for 1 h. […] After the final wash, the fungal cells were counted again on the flow cytometer and re-constituted in FACS buffer of PBS containing 5% BSA at a density of 2×10^6 cells/mL. […]

[2] = ELISA assay for antibody recruitment on immobilized chitin; format: binding; conditions: FIG. 9A
Method: Free chitin (0.100 g, Alfa Aesar, United Kingdom) was hydrolyzed by adding 10 ml of conc. HCl for 30 min with gentle stirring. An aliquot of the chilin solution(1 mL) was mixed with 9 ml of PBS to the final concentration of 1 mg/mL. This solution was further diluted to 100 μg/mL with PBS and coated overnight at 4° C. in a 96-well Nunc MaxiSorp microtiter plate. Upon completion, the coated plate was blocked with 2% BSA solution at 37° C. for 3 h. Next, compounds and controls at predetermined dilutions made in the 2% BSA blocking solution were added followed by addition of 2 mg/ml anti-DNP biotinylated antibodies diluted 1:100 (Invitrogen, CA). The plate was covered and incubated at 37° C. for 1 h. The plate was washed 3 times with wash solution (0.2% Tween 20 in PBS) and HRP-labeled streptavidin secondary reagent was added at a dilution 1:10000 in 2% BSA. The plate was incubated again at 37° C. for 1 h followed by washing 3 times with wash solution. HRP substrate TMB Ultra solution (Thermo Fischer, IL) was added to the plates and incubated until suitable color development and the reaction was stopped by adding 100 μL of aq. 1N H2SO4. Quantification was performed by measuring absorbance on a plate reader at 450 nm.

SMILES | viability of C. albicans at caspofungin concentrations higher than 1.25 ng/ml ([1]; FIG. 9C) | viability of fungal cells during antibody recruitment (Candida albicans; dose-dependent recruitment, FIG. 8B) | C. albicans cells exhibiting AF647 fluorescence (Candida albicans; no caspofungin, FIG. 8A) | fungal cells that recruited antibodies and were alive ([1]; 1 μM of 8, 1.25 ng/ml caspofungin, FIG. 9C) | dose eliciting antibody recruitment comparable to the maximum possible in the non-caspofungin model ([1]; caspofungin treated C. albicans, FIG. 9D) | concentration eliciting maximum response in caspofungin treated cells ([1]; dose ranging, caspofungin treated C. albicans, FIG. 9D) | concentration of maximal phagocytosis response (C. albicans; bell-shaped curve, FIG. 10C) | phagocytosis of C. albicans cells (in words) (C. albicans; human neutrophils, anti-DNP antibodies, compared to untreated cells) | binding to chitin (in words) [2]
CC[C@H](C)C[C@H](C)CCCCCCCCC(=O)N[C@H]1C[C@@H](O)[C@@H](NCCN)NC(=O)[C@@H]2[C@@H](O)CCN2C(=O)[C@H]([C@H](O)CCN)NC(=O)[C@H]([C@H](O)[C@@H](O)c2ccc(O)cc2)NC(=O)[C@@H]2C[C@@H](O)CN2C(=O)[C@H]([C@@H](C)O)NC1=O [Caspofungin, reference compound] | reduced viability | – | – | – | – | – | – | – | –
O=C(NCCOCCOCCOCCOCCOCCOCCOCCOCCOCCNc1ccc([N+](=O)[O-])cc1[N+](=O)[O-])c1ccc(Nc2nc(Nc3ccc(/C=C/c4ccc(Nc5nc(Nc6ccc(C(=O)NCCOCCOCCOCCOCCOCCOCCOCCOCCOCCNc7ccc([N+](=O)[O-])cc7[N+](=O)[O-])cc6)nc(N(CCO)CCO)n5)cc4S(=O)(=O)O)c(S(=O)(=O)O)c3)nc(N(CCO)CCO)n2)cc1 [compound 8] | – | no loss of viability | 35-45% | 90% | 10 nM | 1 µM | 10 µM | drastic increase in number of phagocytosed fungal cells | binds to fungal chitin in a dose-dependent manner
